Data as given in ChEMBL document CHEMBL1152206, “Vasodilatation effect of farnesylacetones, active constituents of Sargassum siliquastrum, on the basilar and carotid arteries of rabbits” (Bioorg Med Chem Lett, 2008).

Key:
[1] = Vasorelaxant activity against depolarization-induced basilar artery constriction in white rabbit; format: functional, tissue-based, Oryctolagus cuniculus
[2] = Vasorelaxant activity against depolarization-induced carotid artery constriction in white rabbit; format: functional, tissue-based, Oryctolagus cuniculus

EC50 [1]	EC50 [2]	Compound
1.22 µM	13.7 µM	CC(=O)CC/C=C(\C)CCC/C(C)=C/C(=O)CC(C)C
3.72 µM	14.5 µM	CC(=O)CC/C=C(\C)CCC/C(C)=C\C(=O)CC(C)C
